Test results published in patent publication US20100216823A1 (Pfizer Inc., priority 2007, published 2010).
Blank lines part the entries; values can stand above or below the molecule they belong to.

How the values were obtained:
Format in all cases: biochemical
[1] = biological target: T1, PDE7A (Homo sapiens, UniProt Q13946); test: PDE7A [3H]-cAMP scintillation proximity assay (SPA) enzyme inhibition; details: for Ki: full length PDE7A in cell lysate, ~25 nM cAMP, Ki from IC50 by Cheng-Prussof equation; for 1C/7A selectivity: ratio PDE1C Ki / PDE7A Ki
T1 construct: cell lysate containing full length PDE7A, PDE7B and PDE1C enzyme; made in house; host or cells: cell lysate
Experimental: (§1) The ability of the compounds of formula (I) to inhibit PDE7 and PDE1 may be measured using the following assay protocol.
(§2) PDE7A, PDE7B and PDE1C enzymes catalyse the hydrolysis of 3′,5′-cyclic adenosine monophosphate (cAMP) to the 5′ adenosine monophosphate, 5′AMP. In a multiwell plate, PDE enzyme, [^3H]-cAMP and the test compounds, are incubated at room temperature. The incubation is terminated by addition of commercially available yttrium silicate scintillation proximity assay (SPA) beads containing zinc sulphate. The yttrium silicate beads preferentially bind linear nucleotides, thus the product of the enzyme reaction, [^3H]-5′AMP binds to the bead to produce a light signal, which is detected by a scintillation counter. The amount of signal produced directly correlates with the amount of product formed, and thus the activity of the enzyme. The maximum signal is obtained where enzyme and substrate are incubated alone. The background signal is measured from wells either containing no enzyme, or from wells containing a supra-maximal concentration of a known PDE 7A/7B/1C inhibitor. Each purified batch of enzyme is quality controlled and its Km, Vmax and specific activity determined from kinetic studies before use in compound inhibition studies. The inhibition of the enzyme, by a test compound, is calculated relative to the maximum and background responses.
(§3) The compound of Example 75 of WO 02/074754, 5′-carboxypropoxy-8′-chloro-spiro[cyclohexane-1-4′-(3′,4′-dihydro)quinazolin]-2′(1′H)-one (referred to as compound A hereafter) was used as a standard for PDE7A and PDE7B. The compound of Example 32 of WO 02/074754, 4-(8′-chloro-2′-oxo-2′,3′-dihydro-1′H-spiro[cyclohexane-1,4′-quinazolin]-6′-yl)benzoic acid (referred to as compound B hereafter) was used as a standard for PDE1C.
(§4) The optimisation of this assay has been carried out using cell lysate containing full length PDE7A, PDE7B and PDE1C enzyme. The concentration of the enzyme in this cell lysate sample is unknown, so the specific activity of the cell lysate is used as a measure to ensure that the same activity per well is used despite any batch-to-batch variation of concentration/activity.
(§5) PDE7A/7B/1C stock enzyme was prepared and kept at −20° C. in appropriately sized aliquots to reduce the number of freeze/thaw cycles. […] PDE7A is diluted to 1/8000, PDE7B to 1/10000 and PDE1C to 1/200000.
(§6) The final assay [cAMP] of ˜25 nM is required, so ˜50 nM [^3H]-cAMP was prepared. 9 ml of substrate solution was prepared by mixing 10.8 μl of [^3H]-cAMP (available from Amersham) with 8975 μl of assay buffer.
(§7) 1 μl test compound was transferred into a suitable multi-well assay plate immediately prior to reagent assay addition, 14 μl enzyme solution was then added to the assay plate, followed by 15 μl substrate solution (ie: final assay volume 30 μl, with a final screening compound concentration of 1 μM for PDE7A and PDE7B and 10 μM for PDE1C). The plate was then sealed using a plate sealer and incubated at room temperature for 45 min on the plate shaker.
(§8) 30 μl Yttrium Silicate PDE4 SPA beads were then added, ensuring constant stirring of the beads to give even distribution in the assay plate. The plate was then sealed using a plate sealer and incubated at room temperature for 30 mins on the plate shaker. The beads were then allowed to settle for 30 mins, before spinning the plates for 1 min at 200 g.
(§9) The plates were then read on a suitable radioactive counter, for example NXT-TopCount™ (available from Perkin Elmer) using the relevant protocol (30 second read time per well).
(§10) The data was fitted to a sigmoid curve using a least squares algorithm.
(§11) The IC50 value was converted to a value using the Cheng-Prussof equation: […]

[2] = biological target: T2, PDE7B (Homo sapiens, UniProt Q9NP56); test: PDE7B [3H]-cAMP scintillation proximity assay (SPA) enzyme inhibition; details: for Ki: full length PDE7B in cell lysate, ~25 nM cAMP, Ki from IC50 by Cheng-Prussof equation; for 1C/7B selectivity: ratio PDE1C Ki / PDE7B Ki
T2 construct: cell lysate containing full length PDE7A, PDE7B and PDE1C enzyme; made in house; host or cells: cell lysate
Experimental: as §1, §2, §3, §4, §5, §6, §7, §8, §9, §10, §11

[3] = biological target: T3, PDE1C (Homo sapiens, UniProt Q14123); test: PDE1C [3H]-cAMP scintillation proximity assay (SPA) enzyme inhibition; details: full length PDE1C in cell lysate; 75 nM cAMP; Ki from IC50 by Cheng-Prussof equation
T3 construct: cell lysate containing full length PDE7A, PDE7B and PDE1C enzyme; made in house; host or cells: cell lysate
Experimental: as §1, §2, §3, §4, §5
The final assay [cAMP]=75 nM therefore the required solution [cAMP]=0.15 μM (1/2 dilution in assay plate)
as §7, §8, §9, §10, §11

T2 sequence (Q9NP56 whole entry): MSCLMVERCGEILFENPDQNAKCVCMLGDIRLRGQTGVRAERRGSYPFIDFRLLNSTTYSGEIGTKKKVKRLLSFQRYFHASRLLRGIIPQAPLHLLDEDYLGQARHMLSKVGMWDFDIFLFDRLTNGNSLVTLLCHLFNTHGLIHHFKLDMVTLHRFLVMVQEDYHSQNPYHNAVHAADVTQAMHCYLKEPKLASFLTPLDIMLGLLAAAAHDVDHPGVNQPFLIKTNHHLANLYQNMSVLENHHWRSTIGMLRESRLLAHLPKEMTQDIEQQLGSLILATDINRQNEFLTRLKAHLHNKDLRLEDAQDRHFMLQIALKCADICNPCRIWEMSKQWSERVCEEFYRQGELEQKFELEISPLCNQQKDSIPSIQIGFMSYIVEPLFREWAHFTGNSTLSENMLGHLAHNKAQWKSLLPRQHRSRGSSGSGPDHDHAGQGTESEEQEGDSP
T1 sequence (Q13946 whole entry): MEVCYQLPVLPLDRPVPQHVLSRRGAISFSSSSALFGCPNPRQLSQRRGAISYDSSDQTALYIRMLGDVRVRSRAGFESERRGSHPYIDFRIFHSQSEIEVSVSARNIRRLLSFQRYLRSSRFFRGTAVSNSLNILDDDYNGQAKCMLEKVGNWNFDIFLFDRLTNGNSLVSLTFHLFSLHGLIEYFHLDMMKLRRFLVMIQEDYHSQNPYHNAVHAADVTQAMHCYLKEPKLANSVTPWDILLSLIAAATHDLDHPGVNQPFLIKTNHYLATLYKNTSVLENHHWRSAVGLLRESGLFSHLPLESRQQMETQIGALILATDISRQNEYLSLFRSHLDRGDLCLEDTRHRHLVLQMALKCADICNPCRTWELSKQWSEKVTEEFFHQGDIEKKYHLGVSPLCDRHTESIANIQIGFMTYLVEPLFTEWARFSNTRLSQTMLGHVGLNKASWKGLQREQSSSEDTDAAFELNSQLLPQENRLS
T3 sequence (Q14123 whole entry): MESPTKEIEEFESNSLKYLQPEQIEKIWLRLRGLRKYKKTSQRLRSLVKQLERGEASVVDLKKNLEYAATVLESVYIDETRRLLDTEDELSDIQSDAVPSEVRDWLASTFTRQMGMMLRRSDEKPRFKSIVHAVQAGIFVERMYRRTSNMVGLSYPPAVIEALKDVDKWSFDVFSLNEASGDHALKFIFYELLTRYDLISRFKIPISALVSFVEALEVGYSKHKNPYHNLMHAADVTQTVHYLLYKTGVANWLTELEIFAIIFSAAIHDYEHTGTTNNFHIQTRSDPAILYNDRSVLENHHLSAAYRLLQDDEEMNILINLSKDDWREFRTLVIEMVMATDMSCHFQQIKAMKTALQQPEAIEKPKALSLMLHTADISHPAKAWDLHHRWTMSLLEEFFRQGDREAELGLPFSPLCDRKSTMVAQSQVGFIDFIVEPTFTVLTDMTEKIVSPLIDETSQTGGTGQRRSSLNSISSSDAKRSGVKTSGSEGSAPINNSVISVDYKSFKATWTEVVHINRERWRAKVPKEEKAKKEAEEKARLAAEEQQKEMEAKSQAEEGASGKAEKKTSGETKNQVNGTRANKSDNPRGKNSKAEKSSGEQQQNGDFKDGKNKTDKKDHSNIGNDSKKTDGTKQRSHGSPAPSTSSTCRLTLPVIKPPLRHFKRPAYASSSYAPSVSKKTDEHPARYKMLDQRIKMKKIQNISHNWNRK

Ki [1]: 1.1 nM | 1C/7A selectivity [1]: 85 | Ki [2]: 1.6 nM | 1C/7B selectivity [2]: 59 | Ki [3]: 94 nM
SMILES: O=C1Nc2c(Cl)ccc(Oc3c(F)cccc3-c3noc(=O)[nH]3)c2C2(CCCCC2)N1 [Example 18, 8′-chloro-5′-[2-fluoro-6-(5-oxo-4,5-dihydro-1,2,4-oxadiazol-3-yl)phenoxy]-1′H-spiro[cyclohexane-1,4′-quinazolin]-2′(3′H)-one]

Ki [1]: 0.98 nM | 1C/7A selectivity [1]: 160 | Ki [2]: 11 nM | 1C/7B selectivity [2]: 14 | Ki [3]: 157 nM
SMILES: O=C(O)COc1ccc(Oc2ccc(Cl)c3c2C2(CCCCC2)NC(=O)N3)cc1 [Example 24, {4-[(8′-chloro-2′-oxo-2′,3′-dihydro-1′H-spiro[cyclohexane-1,4′-quinazolin]-5′-yl)oxy]phenoxy}acetic acid]

Ki [1]: 5 nM | 1C/7A selectivity [1]: 217 | Ki [2]: 6.6 nM | 1C/7B selectivity [2]: 164 | Ki [3]: 1080 nM
SMILES: O=C1Nc2c(Cl)ccc(Oc3c(Cl)cccc3-c3nn[nH]n3)c2C2(CCCC2)N1 [Example 15, 8′-chloro-5′-[6-chloro-2-(1H-tetrazol-5-yl)phenoxy]-1′H-spiro[cyclopentane-1,4′-quinazolin]-2′(3′H)-one]

Ki [1]: 0.2 nM | 1C/7A selectivity [1]: 311 | Ki [2]: 2.4 nM | 1C/7B selectivity [2]: 25 | Ki [3]: 62 nM
SMILES: O=C1Nc2c(Cl)ccc(Oc3c(F)cccc3NS(=O)(=O)C(F)(F)F)c2C2(CCCCC2)N1 [Example 21, N-{2-[(8′-chloro-2′-oxo-2′,3′-dihydro-1′H-spiro[cyclohexane-1,4′-quinazolin]-5′-yl)oxy]-3-fluorophenyl}-1,1,1-trifluoromethanesulfonamide]

Second part, the molecule before the results:

SMILES: O=C1Nc2c(Cl)ccc(Oc3ccc(F)cc3-c3nnn[nH]3)c2C2(CCCC2)N1 [Example 13, 8′-chloro-5′-[4-fluoro-2-(1H-tetrazol-5-yl)phenoxy]-1′H-spiro[cyclopentane-1,4′-quinazolin]-2′(3′H)-one]
Ki [1]: 1.7 nM | 1C/7A selectivity [1]: 523 | Ki [2]: 7.2 nM | 1C/7B selectivity [2]: 119 | Ki [3]: 862 nM

SMILES: O=C1Nc2c(Cl)ccc(-c3ccc(F)c(C(=O)O)c3)c2C2(CCCCC2)N1 [Example 1, 5-[(8′-chloro-2′-oxo-2′,3′-dihydro-1′H-spiro[cyclohexane-1,4′-quinazolin]-5′-yl)]-2-fluorobenzoic acid]
Ki [1]: 3.2 nM | 1C/7A selectivity [1]: >1750 | Ki [2]: 32 nM | 1C/7B selectivity [2]: >175 | Ki [3]: > 5600 nM

SMILES: O=C(O)COc1cccc(-c2ccc(Cl)c3c2C2(CCCCC2)NC(=O)N3)c1 [Example 5, [3-(8′-chloro-2′-oxo-2′,3′-dihydro-1′H-spiro[cyclohexane-1,4′-quinazolin]-5′-yl)phenoxy]acetic acid]
Ki [1]: 4.5 nM | 1C/7A selectivity [1]: >1260 | Ki [2]: 51 nM | 1C/7B selectivity [2]: >113 | Ki [3]: > 5730 nM
